Reference: ChEMBL document CHEMBL3399952, “Design and synthesis of novel anti-tuberculosis agents from the celecoxib pharmacophore” (Bioorg Med Chem, 2015)
Activity calls are given as the source filed them.

How the values were obtained:
Type in all cases: functional, organism-based
[1] = tested on: Mycobacterium tuberculosis; experiment: Antimycobacterial activity against rifampicin, streptomycin-resistant Mycobacterium tuberculosis Strain 13B assessed as reduction in growth measured at 2.5 uM after 90 hrs by optical density-based broth culture growth assay
[2] = tested on: Mycobacterium tuberculosis; experiment: Antimycobacterial activity against isoniazid, ethambutol-resistant Mycobacterium tuberculosis Strain 11J assessed as reduction in growth measured at 2.5 uM after 90 hrs by optical density-based broth culture growth assay
[3] = tested on: Mycobacterium tuberculosis; experiment: Antimycobacterial activity against isoniazid, streptomycin-resistant Mycobacterium tuberculosis Strain 13E assessed as reduction in growth measured at 2.5 uM after 90 hrs by optical density-based broth culture growth assay

Measured: inhibition

CNC(=O)CCc1cc(-c2ccc(-c3ccc(C(F)(F)F)cc3)cc2)n(-c2ccc(NC(=O)c3cn(C)cn3)cc2)n1
active: all assays above

CNC(=O)CCc1cc(-c2ccc(-c3ccc(C(F)(F)F)cc3)cc2)n(-c2ccc(NC(=O)c3ccncc3)cc2)n1
active: all assays above

CNC(=O)CCc1cc(-c2ccc(-c3ccc(C(F)(F)F)cc3)cc2)n(-c2ccc(NC(=O)c3ccnc(C)c3)cc2)n1
active: all assays above

CNC(=O)CCc1cc(-c2ccc(-c3ccc(C(F)(F)F)cc3)cc2)n(-c2ccc(NC(=O)c3ccc(N)cc3)cc2)n1
active: all assays above

CNC(=O)CCc1cc(-c2ccc(-c3ccc(C(F)(F)F)cc3)cc2)nn1-c1ccc(NC(=O)c2ccncc2)cc1
active: all assays above

CNC(=O)CCc1cc(-c2ccc(-c3ccc(C(F)(F)F)cc3)cc2)n(-c2ccc(NC(=O)c3ccncc3Cl)cc2)n1
active: all assays above
